System: MV-4-11 cells
Assay: Gene expression microarray analysis (Affymetrix PrimeView) and GSEA
Format: cell-based, human
Design: RFU PODN (11730768_x_at) / Fold change /veh PODN (11730768_x_at) / RFU LINC00158 (11744669_a_at) / Fold change /veh LINC00158 (11744669_a_at) / RFU DUSP10 (11751237_a_at) / Fold change /veh DUSP10 (11751237_a_at) / RFU ID3 (11757404_x_at) / Fold change /veh ID3 (11757404_x_at) / RFU PLEKHG5 (11737974_s_at) / Fold change /veh PLEKHG5 (11737974_s_at) / RFU LRRC4B (11730491_at) / Fold change /veh LRRC4B (11730491_at) / RFU GIMAP4 (11747438_a_at) / Fold change /veh GIMAP4 (11747438_a_at) / RFU KRT8 (11758183_x_at) / Fold change /veh KRT8 (11758183_x_at) / RFU CNN1 (11734310_a_at) / Fold change /veh CNN1 (11734310_a_at) / RFU VPS37D (11726825_at) / Fold change /veh VPS37D (11726825_at) / RFU C10orf10 (11716522_x_at) / Fold change /veh C10orf10 (11716522_x_at) / RFU KIR2DL2 /// KIR2DL4 /// KIR2DL5A /// KIR2DL5B /// KIR2DS1 /// KIR2DS2 /// KIR2DS3 /// KIR2DS4 /// KIR3DL3 /// KIR3DL3 /// KIR3DS1 (11738374_at) / Fold change /veh KIR2DL2 /// KIR2DL4 /// KIR2DL5A /// KIR2DL5B /// KIR2DS1 /// KIR2DS2 /// KIR2DS3 /// KIR2DS4 /// KIR3DL3 /// KIR3DL3 /// KIR3DS1 (11738374_at) / RFU C1QL1 (11718748_at) / Fold change /veh C1QL1 (11718748_at) / RFU TMPRSS4 (11747572_a_at) / Fold change /veh TMPRSS4 (11747572_a_at) / RFU HAMP (11756126_x_at) / Fold change /veh HAMP (11756126_x_at) / RFU RNFT2 (11725882_a_at) / Fold change /veh RNFT2 (11725882_a_at) / RFU NR4A2 (11747474_a_at) / Fold change /veh NR4A2 (11747474_a_at) / RFU ABCC12 (11746883_a_at) / Fold change /veh ABCC12 (11746883_a_at) / RFU TMEM136 (11760407_x_at) / Fold change /veh TMEM136 (11760407_x_at) / RFU CLDN22 /// WWC2 (11732394_at) / Fold change /veh CLDN22 /// WWC2 (11732394_at) / RFU HLA-DPB1 (11760878_x_at) / Fold change /veh HLA-DPB1 (11760878_x_at) / RFU SPINT1 (11716480_a_at) / Fold change /veh SPINT1 (11716480_a_at) / RFU GAP43 (11754022_s_at) / Fold change /veh GAP43 (11754022_s_at) / RFU A4GNT (11735810_at) / Fold change /veh A4GNT (11735810_at) / RFU PRB3 (11715151_x_at) / Fold change /veh PRB3 (11715151_x_at) / RFU TUBB4B (11761932_at) / Fold change /veh TUBB4B (11761932_at) / RFU CAPN14 (11732068_a_at) / Fold change /veh CAPN14 (11732068_a_at) / RFU TMCC2 (11721928_a_at) / Fold change /veh TMCC2 (11721928_a_at) / RFU IRGQ (11745062_a_at) / Fold change /veh IRGQ (11745062_a_at) / RFU FAM174B (11720279_a_at) / Fold change /veh FAM174B (11720279_a_at) / RFU TMPRSS4 (11748680_a_at) / Fold change /veh TMPRSS4 (11748680_a_at) / RFU FAM212B (11763350_a_at) / Fold change /veh FAM212B (11763350_a_at) / RFU PLEKHG5 (11743358_a_at) / Fold change /veh PLEKHG5 (11743358_a_at) / RFU ZSCAN30 (11745921_a_at) / Fold change /veh ZSCAN30 (11745921_a_at) / RFU CMKLR1 (11741424_a_at) / Fold change /veh CMKLR1 (11741424_a_at) / RFU LOC101060620 /// MAPK8IP1 (11723275_at) / Fold change /veh LOC101060620 /// MAPK8IP1 (11723275_at) / RFU SPTSSB (11747773_x_at) / Fold change /veh SPTSSB (11747773_x_at) / RFU PRSS12 (11739890_at) / Fold change /veh PRSS12 (11739890_at) / RFU BIN1 (11741810_x_at) / Fold change /veh BIN1 (11741810_x_at) / RFU WNT11 (11732464_a_at) / Fold change /veh WNT11 (11732464_a_at) / RFU C10orf10 (11716521_a_at) / Fold change /veh C10orf10 (11716521_a_at) / RFU C5orf56 (11738089_at) / Fold change /veh C5orf56 (11738089_at) / RFU CYB561 (11721691_x_at) / Fold change /veh CYB561 (11721691_x_at) / RFU ANKRD19P (11752326_a_at) / Fold change /veh ANKRD19P (11752326_a_at) / RFU OR2T12 /// OR2T33 /// OR2T8 (11738714_s_at) / Fold change /veh OR2T12 /// OR2T33 /// OR2T8 (11738714_s_at) / RFU VCAN (11748164_a_at) / Fold change /veh VCAN (11748164_a_at) / RFU JSRP1 (11732532_at) / Fold change /veh JSRP1 (11732532_at) / RFU KRTAP10-11 (11738290_x_at) / Fold change /veh KRTAP10-11 (11738290_x_at) / RFU MYO3A (11730013_a_at) / Fold change /veh MYO3A (11730013_a_at) / RFU EBF3 (11725865_a_at) / Fold change /veh EBF3 (11725865_a_at) / RFU CAMK2N1 (11719241_x_at) / Fold change /veh CAMK2N1 (11719241_x_at) / RFU C5orf56 (11738088_a_at) / Fold change /veh C5orf56 (11738088_a_at) / RFU OLFML3 (11715873_a_at) / Fold change /veh OLFML3 (11715873_a_at) / RFU LOC100653217 /// NTM (11731650_a_at) / Fold change /veh LOC100653217 /// NTM (11731650_a_at) / RFU MAPK11 (11762145_a_at) / Fold change /veh MAPK11 (11762145_a_at) / RFU FIZ1 (11724087_x_at) / Fold change /veh FIZ1 (11724087_x_at) / RFU OASL (11726364_x_at) / Fold change /veh OASL (11726364_x_at) / RFU SOX15 (11748057_x_at) / Fold change /veh SOX15 (11748057_x_at) / RFU CD79A (11719716_a_at) / Fold change /veh CD79A (11719716_a_at) / RFU HIST1H1D (11736915_at) / Fold change /veh HIST1H1D (11736915_at) / RFU CASKIN2 (11723855_a_at) / Fold change /veh CASKIN2 (11723855_a_at) / RFU LOC730098 (11760151_x_at) / Fold change /veh LOC730098 (11760151_x_at) / RFU OR4N2 (11742367_at) / Fold change /veh OR4N2 (11742367_at) / RFU PRRT2 (11749266_a_at) / Fold change /veh PRRT2 (11749266_a_at) / RFU SNX32 (11753110_a_at) / Fold change /veh SNX32 (11753110_a_at) / RFU CDHR5 (11726645_a_at) / Fold change /veh CDHR5 (11726645_a_at) / RFU RCAN1 (11760418_a_at) / Fold change /veh RCAN1 (11760418_a_at) / RFU FAM167A (11723789_a_at) / Fold change /veh FAM167A (11723789_a_at) / RFU FAM26E (11764081_at) / Fold change /veh FAM26E (11764081_at) / RFU ISYNA1 (11749810_s_at) / Fold change /veh ISYNA1 (11749810_s_at) / RFU ACY1 (11761880_at) / Fold change /veh ACY1 (11761880_at) / RFU 11764098_at / Fold change /veh 11764098_at / RFU SAMD14 (11745864_x_at) / Fold change /veh SAMD14 (11745864_x_at) / RFU NPB (11741838_a_at) / Fold change /veh NPB (11741838_a_at) / RFU TMPRSS6 (11731388_a_at) / Fold change /veh TMPRSS6 (11731388_a_at) / RFU KRTAP10-2 (11738614_at) / Fold change /veh KRTAP10-2 (11738614_at) / RFU ARHGAP8 /// PRR5-ARHGAP8 (11727945_x_at) / Fold change /veh ARHGAP8 /// PRR5-ARHGAP8 (11727945_x_at) / RFU KRTAP5-7 /// NADSYN1 (11734609_at) / Fold change /veh KRTAP5-7 /// NADSYN1 (11734609_at) / RFU RASL12 (11751679_a_at) / Fold change /veh RASL12 (11751679_a_at) / RFU CDKN2B (11736163_a_at) / Fold change /veh CDKN2B (11736163_a_at) / RFU PRF1 (11729649_at) / Fold change /veh PRF1 (11729649_at) / RFU, ZNF638 /// ZNF638-IT1 / Fold change vs veh, ZNF638 /// ZNF638-IT1 / RFU, PANK3 / Fold change vs veh, PANK3 / RFU, SH3YL1 / Fold change vs veh, SH3YL1 / RFU, ZEB2 / Fold change vs veh, ZEB2 / RFU, NRIP1 / Fold change vs veh, NRIP1 / RFU, PTTG1IP / Fold change vs veh, PTTG1IP / RFU, CAPN2 / Fold change vs veh, CAPN2 / RFU, MED14 / Fold change vs veh, MED14 / RFU, SNORA58 / Fold change vs veh, SNORA58 / RFU, C1orf63 / Fold change vs veh, C1orf63 / RFU, LRRFIP1 / Fold change vs veh, LRRFIP1 / RFU, NDUFAF7 / Fold change vs veh, NDUFAF7 / RFU, SLC12A2 / Fold change vs veh, SLC12A2 / RFU, IBTK / Fold change vs veh, IBTK / RFU, ESF1 / Fold change vs veh, ESF1 / Fold change vs veh, TMEM50B / RFU, TAOK1 / Fold change vs veh, TAOK1 / RFU, ACBD3 / Fold change vs veh, ACBD3 / RFU, TMA16 / Fold change vs veh, TMA16 / RFU, RWDD3 / Fold change vs veh, RWDD3 / RFU, BCAT1 / Fold change vs veh, BCAT1 / RFU, EDEM3 / Fold change vs veh, EDEM3 / RFU, TMEM33 / Fold change vs veh, TMEM33 / RFU, WDR75 / Fold change vs veh, WDR75 / RFU, AHCTF1 / Fold change vs veh, AHCTF1 / RFU, TFRC / Fold change vs veh, TFRC / RFU, ZDHHC17 / Fold change vs veh, ZDHHC17 / RFU, NOM1 / Fold change vs veh, NOM1 / RFU, ARL8B / Fold change vs veh, ARL8B / RFU, ZBTB11 / Fold change vs veh, ZBTB11 / RFU, TAMM41 / Fold change vs veh, TAMM41 / RFU, KIAA1704 /// LOC100996395 / Fold change vs veh, KIAA1704 /// LOC100996395 / RFU, ING1 / Fold change vs veh, ING1 / RFU, TRMT61B / Fold change vs veh, TRMT61B / RFU, FUBP3 / Fold change vs veh, FUBP3 / RFU, TP53 / Fold change vs veh, TP53 / RFU, TNKS2 / Fold change vs veh, TNKS2 / RFU, ZFP14 / Fold change vs veh, ZFP14 / RFU, ACTR2 / Fold change vs veh, ACTR2 / RFU, PPP3R1 / Fold change vs veh, PPP3R1 / RFU, PIK3R1 / Fold change vs veh, PIK3R1 / RFU, HNRNPA1 / Fold change vs veh, HNRNPA1 / RFU, RNF170 / Fold change vs veh, RNF170 / RFU, ZNF28 / Fold change vs veh, ZNF28 / RFU, RNGTT / Fold change vs veh, RNGTT / RFU, OGT / Fold change vs veh, OGT / RFU, BRD1 / Fold change vs veh, BRD1 / RFU, MARS / Fold change vs veh, MARS / RFU, ZNF655 / Fold change vs veh, ZNF655 / RFU, FAHD1 / Fold change vs veh, FAHD1 / RFU, BDP1 / Fold change vs veh, BDP1 / RFU, LRRCC1 / Fold change vs veh, LRRCC1 / RFU, ARID1A / Fold change vs veh, ARID1A / RFU, ZNF146 / Fold change vs veh, ZNF146 / RFU, ZNF330 / Fold change vs veh, ZNF330 / RFU, GPN3 / Fold change vs veh, GPN3 / RFU, C9orf123 / Fold change vs veh, C9orf123 / RFU, N4BP2L2 / Fold change vs veh, N4BP2L2 / RFU, ARFIP1 / Fold change vs veh, ARFIP1 / RFU, FAM179B / Fold change vs veh, FAM179B / RFU, BCL10 / Fold change vs veh, BCL10 / RFU, UHRF1BP1L / Fold change vs veh, UHRF1BP1L / RFU, BET1 / Fold change vs veh, BET1 / RFU, CNOT2 / Fold change vs veh, CNOT2 / RFU, ZNF268 / Fold change vs veh, ZNF268 / Fold change vs veh, ZNF507 / RFU, DGCR2 / Fold change vs veh, DGCR2 / RFU, WDSUB1 / Fold change vs veh, WDSUB1 / Fold change vs veh, HSP90B1 /// MIR3652 / RFU, ADSS / Fold change vs veh, ADSS / RFU, GK / Fold change vs veh, GK / RFU, ZNF148 / Fold change vs veh, ZNF148 / RFU, TAF9 / Fold change vs veh, TAF9 / RFU, SLC1A5 / Fold change vs veh, SLC1A5 / RFU, SLMO2 / Fold change vs veh, SLMO2 / RFU, ABCC4 / Fold change vs veh, ABCC4 / RFU, LOC101060439 /// RAP1B / Fold change vs veh, LOC101060439 /// RAP1B / RFU, RFX7 / Fold change vs veh, RFX7 / RFU, GTPBP10 / Fold change vs veh, GTPBP10 / RFU, CNEP1R1 / Fold change vs veh, CNEP1R1 / RFU, BIVM-ERCC5 /// ERCC5 / Fold change vs veh, BIVM-ERCC5 /// ERCC5 / RFU, ILF3 / Fold change vs veh, ILF3 / RFU 11762660_at / Fold change /veh 11762660_at / RFU VCAN (11757783_s_at) / Fold change /veh VCAN (11757783_s_at) / RFU DDX43 (11728927_at) / Fold change /veh DDX43 (11728927_at) / RFU KRT8 (11758188_x_at) / Fold change /veh KRT8 (11758188_x_at) / RFU NKD1 (11759106_at) / Fold change /veh NKD1 (11759106_at) / RFU SRD5A1 (11742802_a_at) / Fold change /veh SRD5A1 (11742802_a_at) / RFU TPSAB1 /// TPSB2 (11721975_s_at) / Fold change /veh TPSAB1 /// TPSB2 (11721975_s_at) / RFU GSTM3 (11746129_a_at) / Fold change /veh GSTM3 (11746129_a_at) / RFU IL23R (11737362_x_at) / Fold change /veh IL23R (11737362_x_at) / RFU TMEM51 (11727254_a_at) / Fold change /veh TMEM51 (11727254_a_at) / RFU PIWIL2 (11732686_x_at) / Fold change /veh PIWIL2 (11732686_x_at) / RFU ORM1 (11744905_x_at) / Fold change /veh ORM1 (11744905_x_at) / RFU CCDC152 (11743942_at) / Fold change /veh CCDC152 (11743942_at) / RFU ECM1 (11717891_a_at) / Fold change /veh ECM1 (11717891_a_at) / RFU IL23R (11748794_a_at) / Fold change /veh IL23R (11748794_a_at) / RFU TNFAIP8L3 (11732012_x_at) / Fold change /veh TNFAIP8L3 (11732012_x_at) / RFU MBOAT4 (11741988_at) / Fold change /veh MBOAT4 (11741988_at) / RFU 11764193_at / Fold change /veh 11764193_at / RFU TMEM53 (11763286_at) / Fold change /veh TMEM53 (11763286_at) / RFU MAGEB2 (11727129_at) / Fold change /veh MAGEB2 (11727129_at) / RFU TMEM200A (11744735_a_at) / Fold change /veh TMEM200A (11744735_a_at) / RFU CCDC152 (11751479_a_at) / Fold change /veh CCDC152 (11751479_a_at) / RFU FAM211A (11726209_a_at) / Fold change /veh FAM211A (11726209_a_at) / RFU RGS16 (11746705_a_at) / Fold change /veh RGS16 (11746705_a_at) / RFU VCAN (11755009_s_at) / Fold change /veh VCAN (11755009_s_at) / RFU RHOB (11743442_s_at) / Fold change /veh RHOB (11743442_s_at) / RFU RGS16 (11720943_a_at) / Fold change /veh RGS16 (11720943_a_at) / RFU RGS16 (11720944_at) / Fold change /veh RGS16 (11720944_at) / RFU, VPS4B / Fold change vs veh, VPS4B / RFU, CREB1 / Fold change vs veh, CREB1 / RFU, DNAJC13 / Fold change vs veh, DNAJC13 / RFU, GNAQ / Fold change vs veh, GNAQ / RFU, CDK5R1 / Fold change vs veh, CDK5R1 / RFU, ZRANB3 / Fold change vs veh, ZRANB3 / RFU, CUL4A / Fold change vs veh, CUL4A / RFU, CCNY / Fold change vs veh, CCNY / RFU, UFL1 / Fold change vs veh, UFL1 / RFU, COG3 / Fold change vs veh, COG3 / RFU, DIAPH2 / Fold change vs veh, DIAPH2 / RFU, SKA2 / Fold change vs veh, SKA2 / RFU, AFF3 / Fold change vs veh, AFF3 / RFU, LMF1 / Fold change vs veh, LMF1 / RFU, IPO11 / Fold change vs veh, IPO11 / RFU, DFFB / Fold change vs veh, DFFB / RFU, FOXP1 / Fold change vs veh, FOXP1 / RFU, CARD8 / Fold change vs veh, CARD8 / RFU, STRN3 / Fold change vs veh, STRN3 / RFU, ADK / Fold change vs veh, ADK / RFU, RASSF2 / Fold change vs veh, RASSF2 / RFU, WIPF1 / Fold change vs veh, WIPF1 / RFU, LARP1B / Fold change vs veh, LARP1B / RFU, RASA1 / Fold change vs veh, RASA1 / RFU, RB1 / Fold change vs veh, RB1 / RFU, PPFIA1 / Fold change vs veh, PPFIA1 / RFU, MAT2A / Fold change vs veh, MAT2A / RFU, CCT5 / Fold change vs veh, CCT5 / RFU, WDR92 / Fold change vs veh, WDR92 / RFU, CUX1 / Fold change vs veh, CUX1 / RFU, TTC7A / Fold change vs veh, TTC7A / RFU, TMEM135 / Fold change vs veh, TMEM135 / RFU, DEPTOR / Fold change vs veh, DEPTOR / RFU, CPM / Fold change vs veh, CPM / RFU, DNAJB6 / Fold change vs veh, DNAJB6 / RFU, CACNA2D3 / Fold change vs veh, CACNA2D3 / RFU, DTX4 / Fold change vs veh, DTX4 / RFU, TFCP2 / Fold change vs veh, TFCP2 / RFU, GMCL1 /// GMCL1P1 / Fold change vs veh, GMCL1 /// GMCL1P1 / RFU, AEBP2 / Fold change vs veh, AEBP2 / RFU, SNHG1 /// SNORD22 /// SNORD25 /// SNORD26 /// SNORD27 /// SNORD28 /// SNORD29 /// SNORD31 / Fold change vs veh, SNHG1 /// SNORD22 /// SNORD25 /// SNORD26 /// SNORD27 /// SNORD28 /// SNORD29 /// SNORD31 / Fold change (Aza/veh), C12orf56 (ProbeSet 11735607_a_at) / Fold change (ACY-1035/veh), C12orf56 (ProbeSet 11735607_a_at) / Fold change (Aza/veh), FGFR1OP (ProbeSet 11751329_s_at) / Fold change (ACY-1035/veh), FGFR1OP (ProbeSet 11751329_s_at) / Fold change (Aza/veh), VPS36 (ProbeSet 11739960_a_at) / Fold change (ACY-1035/veh), VPS36 (ProbeSet 11739960_a_at) / RFU SYPL1 (11715823_x_at) / Fold change /veh SYPL1 (11715823_x_at) / RFU IGFBP7 (11715501_s_at) / Fold change /veh IGFBP7 (11715501_s_at) / RFU REEP3 (11722064_at) / Fold change /veh REEP3 (11722064_at) / RFU IGLL1 (11728026_x_at) / Fold change /veh IGLL1 (11728026_x_at): dose or concentration left out as unconfirmed
Conditions: ProbeSet 11716844_s_at; LIST D

Structure (SMILES): Nc1ncn([C@@H]2O[C@H](CO)[C@@H](O)[C@H]2O)c(=O)n1 [azacitidine]
- RFU, DNAJC13: 111.36 RFU
